Assay results: patent US20260072027A1, “Peptides And Method” (Queen Mary University of London, priority 2022, published 2026)
Entries after “also recorded” stand apart in the source; their conditions may differ. Where no end group is shown, it is not given here.

Legend:
[1] = test system: CD4+ and CD8+ T-cells and IgG autoantibodies; experiment: Overlap of CD4+, CD8+ and IgG antibody responses (Venn analysis); format: cell-based, human; conditions: type 1 diabetes; for patients with overlapping (concordant) CD4+ and CD8+ responses to the peptide: Study cohort 2, SI >1
Description: FIG. 13. Venn diagrams of CD4^+, CD8^+ and antibody response to oxPTM-INSPs. Panels a, b, and c show the overlap between IgG autoantibody and T-cell (CD4^+ and CD8^+) responses specific to oxPTM-INSP-3 (a), Nt-INSP-4 (b) and oxPTM-INSP-6 (c). Panels d, e, and f display the overlap between T-cell responses to the three insulin peptides and IgG to oxPTM-INS modified by hydroxyl radical (^●OH-INS). […] There is concordance between reactivity to oxPTM-INS and CD4^+ and CD8^+ reactivity for all three tested peptides (7/17, 8/18 and 8/18 for oxPTM-INSP-3, Nt-INSP-4 and oxPTM-INSP-6, respectively). The stimulatory index >1 was used for definition of positive T-cell response.
Correlation between T-cell stimulation and antibody response. Subjects evaluated for T-cell stimulation were also tested for antibody reactivity to either oxPTM-INSPs or oxidised intact insulin (oxPTM-INS) to assess correlations between humoral and cellular responses (FIG. 11-e-f). In study cohort 2, antibody reactivity to oxPTM-INSP-6 was the highest as observed in the study cohort 1, with 11/18 (61.1%) binding to at least one oxPTM-INSP-6 derivatives (p<0.001 oxPTM-INSP-6 vs. Nt-INSP-6). Detailed analysis of autoantibody response in this cohort is described in the ESM (ESM results Antibody binding to oxPTM-INSPs in Study cohort 2).
We then analysed the extent of correlation between CD4^+, CD8^+ and IgG antibody responses. […] The CD4^+ T cell response to Nt-INSP-4 frequently overlapped with CD8^+ (13/18 [72.2%]), and to a lesser extent to antibodies (7/18 [38.8%]). […] CD4^+ response to oxPTM-INSP-6 was linked to both CD8^+ and/or antibodies: […] patients had concordant CD4^+ and CD8^+ responses, while 9/18 (50%) patients had concordant CD4^+ and antibody responses. […] CD4^+ T-cell stimulation to Nt-INSP-4, oxPTM-INSP-6 and oxPTM-INSP-3 was associated with antibody reactivity to oxPTM-INS in 8/18 (44.4%), 8/18 (44.4%) and 7/18 (38.9%) type 1 diabetes patients.

[2] = test system: serum IgG autoantibodies; experiment: ELISA for autoantibody detection: serum antibody binding to native and oxPTM insulin peptides; design: species or system human
Procedure, shortened: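 Plates coated overnight at 4 °C with native or HOCl/•OH-oxidised insulin peptides (10 μg/ml, carbonate buffer pH 9.6), blocked with 5% BSA, incubated 2 h with sera at 1:200, then probed with anti-human IgG-HRP and developed with TMB, read at 450 nm. Positivity cut-off: healthy-control mean O.D. plus 3×SEM.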

[3] = Study cohort 1, in house modifications

Substance	concordance between reactivity to oxPTM-INS and CD4+ and CD8+ reactivity (patients/patients) ([1]; Study cohort 2)	patients with CD4+ T-cell stimulation associated with antibody reactivity to oxPTM-INS ([1]; Study cohort 2) [%]	patients with CD4+, CD8+ T-cells to the peptide and autoantibodies to oxPTM-INS simultaneously ([1]; Study cohort 2) [%]	patients with concordant CD4+ and antibody responses to the peptide ([1]; Study cohort 2) [%]	patients with concordant CD4+, CD8+ and IgG antibody response to the peptide ([1]; Study cohort 2) [%]	patients with overlapping (concordant) CD4+ and CD8+ responses to the peptide [1] [%]	% binders, Healthy controls [2, 3] [%]	Mean ± SEM (absorbance, OD), Healthy controls [2, 3]	% binders, Type 1 diabetes ([2]; Study cohort 1, in house modifications, cut-off = mean of healthy controls to Nt-INSP plus 3 SEM) [%]	Mean ± SEM (absorbance, OD), Type 1 diabetes ([2]; Study cohort 1 sera, in house modifications)	type 1 diabetes binders (IgG autoantibody reactivity) ([2]; Study cohort 2, N = 18) [%]	Antibody reactivity of serum samples (in words) ([2]; ELISA)
LVEALYLVCGERGFFYTPKT [insulin B:11-30 native peptide]	8/18	44.4	27.8	38.8	22.2	72.2	20	0.306 ± 0.032	50	0.469 ± 0.047	38.9	
oxPTM-INSP-3: oxidised forms of insulin peptide 3 (A:12-21), in house oxidised or in silico derivatives (SLYQLENYCN; not fully specified (N-terminus); also: oxidised forms, in house oxidised or in silico derivatives, modified residues not defined)	7/17	38.9	22.2		5.5	50.0						High background binding in healthy controls; also recorded: high background binding of healthy controls
